Data as given in ChEMBL document CHEMBL4400540, “Structure-based design, synthesis and biological evaluation of a novel series of isoquinolone and pyrazolo[4,3-c]pyridine inhibitors of fascin 1 as potential anti-metastatic agents” (Bioorg Med Chem Lett, 2019).
≈ marks a conversion by molar mass, not a printed value.

Key:
[1] = target: T1, Fascin (Homo sapiens, UniProt Q16658)
[2] = target: T1, Fascin; remark: listed apart in the source
[3] = Lipophilicity, log D of the compound at pH 7.4; format: physicochemical; conditions: buffer
[4] = Apparent permeability of the compound across apical side to basolateral side in human Caco2 cells; format: ADME, cell-based; conditions: caco-2
[5] = target: Cytochrome P450 2D6 (Homo sapiens, UniProt P10635); assay: Inhibition of CYP2D6 (unknown origin); format: ADME
[6] = target: Cytochrome P450 2C9 (Homo sapiens, UniProt P11712); assay: Inhibition of CYP2C9 (unknown origin); format: ADME
[7] = Intrinsic clearance in human microsomes assessed per mg protein; format: ADME, Microsome
[8] = Intrinsic clearance in mouse microsomes assessed per mg protein; format: ADME, Microsome
[9] = target: T1, Fascin; remark: listed apart in the source
[10] = target: Cytochrome P450 3A4 (Homo sapiens, UniProt P08684); assay: Inhibition of CYP3A4 (unknown origin); format: ADME
[11] = target: Voltage-gated inwardly rectifying potassium channel KCNH2 (Homo sapiens, UniProt Q12809); assay: Inhibition of human ERG
[12] = target: Cytochrome P450 2C19 (Homo sapiens, UniProt P33261); assay: Inhibition of CYP2C19 (unknown origin); format: ADME
[13] = Efflux ratio of apparent permeability of the compound in human Caco2 cells; format: ADME, cell-based; conditions: caco-2
[14] = Solubility of compound by turbidimetric method; format: physicochemical
[15] = target: T1, Fascin; assay: Binding affinity to fascin 1 (unknown origin) by SPR assay

Sequence of Cytochrome P450 2C19 (P33261 whole entry): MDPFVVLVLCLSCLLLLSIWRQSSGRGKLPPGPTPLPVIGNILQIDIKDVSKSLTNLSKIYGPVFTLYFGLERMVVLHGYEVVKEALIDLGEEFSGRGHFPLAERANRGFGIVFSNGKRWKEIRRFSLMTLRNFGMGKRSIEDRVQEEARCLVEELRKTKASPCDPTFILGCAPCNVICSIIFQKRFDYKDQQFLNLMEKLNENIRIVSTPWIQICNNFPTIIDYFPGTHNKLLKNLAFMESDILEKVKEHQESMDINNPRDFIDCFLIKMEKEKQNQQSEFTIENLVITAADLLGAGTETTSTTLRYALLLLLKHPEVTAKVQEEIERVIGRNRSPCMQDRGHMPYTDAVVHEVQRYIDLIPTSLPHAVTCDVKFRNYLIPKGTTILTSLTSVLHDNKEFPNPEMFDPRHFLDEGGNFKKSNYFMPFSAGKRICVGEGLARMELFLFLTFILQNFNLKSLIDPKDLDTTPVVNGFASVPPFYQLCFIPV
Sequence of Voltage-gated inwardly rectifying potassium channel KCNH2 (Q12809 whole entry): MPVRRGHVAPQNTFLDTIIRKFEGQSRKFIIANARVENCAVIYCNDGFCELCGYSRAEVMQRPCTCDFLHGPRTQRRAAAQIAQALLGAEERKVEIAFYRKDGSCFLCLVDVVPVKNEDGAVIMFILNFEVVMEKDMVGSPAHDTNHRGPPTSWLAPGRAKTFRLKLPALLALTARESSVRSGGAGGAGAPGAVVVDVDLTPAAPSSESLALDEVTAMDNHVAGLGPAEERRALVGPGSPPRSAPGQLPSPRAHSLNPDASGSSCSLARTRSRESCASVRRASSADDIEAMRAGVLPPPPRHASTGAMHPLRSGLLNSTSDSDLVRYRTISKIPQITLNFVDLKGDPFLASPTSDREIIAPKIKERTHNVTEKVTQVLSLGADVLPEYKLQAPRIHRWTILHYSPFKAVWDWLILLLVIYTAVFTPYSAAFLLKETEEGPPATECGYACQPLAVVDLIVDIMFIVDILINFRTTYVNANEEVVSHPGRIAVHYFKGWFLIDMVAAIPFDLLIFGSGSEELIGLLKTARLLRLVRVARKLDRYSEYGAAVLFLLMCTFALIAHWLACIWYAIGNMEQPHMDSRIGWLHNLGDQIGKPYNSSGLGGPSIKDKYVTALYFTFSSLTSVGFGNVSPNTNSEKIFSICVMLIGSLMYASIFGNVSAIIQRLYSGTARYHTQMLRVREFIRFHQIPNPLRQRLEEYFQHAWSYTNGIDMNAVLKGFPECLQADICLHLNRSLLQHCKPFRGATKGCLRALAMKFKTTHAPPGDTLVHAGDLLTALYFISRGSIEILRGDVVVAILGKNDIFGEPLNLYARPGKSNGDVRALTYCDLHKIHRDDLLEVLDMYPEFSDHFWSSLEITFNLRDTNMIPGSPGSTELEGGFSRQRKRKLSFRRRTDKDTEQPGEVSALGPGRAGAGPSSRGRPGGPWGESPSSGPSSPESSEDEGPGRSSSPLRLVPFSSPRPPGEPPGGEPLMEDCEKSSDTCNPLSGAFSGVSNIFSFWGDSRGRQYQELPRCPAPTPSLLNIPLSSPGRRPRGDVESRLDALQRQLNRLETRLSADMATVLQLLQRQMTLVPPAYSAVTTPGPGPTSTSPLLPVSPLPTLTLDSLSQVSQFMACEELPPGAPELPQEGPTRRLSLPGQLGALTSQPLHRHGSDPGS
Sequence of Cytochrome P450 2D6 (P10635 whole entry): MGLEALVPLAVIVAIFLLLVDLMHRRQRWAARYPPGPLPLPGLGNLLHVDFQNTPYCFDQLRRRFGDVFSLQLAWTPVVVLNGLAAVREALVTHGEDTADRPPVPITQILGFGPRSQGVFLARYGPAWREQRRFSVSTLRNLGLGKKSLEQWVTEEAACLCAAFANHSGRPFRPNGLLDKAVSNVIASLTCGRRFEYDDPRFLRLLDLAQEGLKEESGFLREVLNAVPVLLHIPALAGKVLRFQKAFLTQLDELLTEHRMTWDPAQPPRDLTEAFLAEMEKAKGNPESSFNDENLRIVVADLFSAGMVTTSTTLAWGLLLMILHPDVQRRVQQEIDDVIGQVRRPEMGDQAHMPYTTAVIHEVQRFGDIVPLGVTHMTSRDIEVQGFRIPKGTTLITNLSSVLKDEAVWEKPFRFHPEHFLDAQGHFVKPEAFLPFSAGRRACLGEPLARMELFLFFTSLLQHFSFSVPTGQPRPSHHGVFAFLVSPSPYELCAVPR
Sequence of Cytochrome P450 3A4 (P08684 whole entry): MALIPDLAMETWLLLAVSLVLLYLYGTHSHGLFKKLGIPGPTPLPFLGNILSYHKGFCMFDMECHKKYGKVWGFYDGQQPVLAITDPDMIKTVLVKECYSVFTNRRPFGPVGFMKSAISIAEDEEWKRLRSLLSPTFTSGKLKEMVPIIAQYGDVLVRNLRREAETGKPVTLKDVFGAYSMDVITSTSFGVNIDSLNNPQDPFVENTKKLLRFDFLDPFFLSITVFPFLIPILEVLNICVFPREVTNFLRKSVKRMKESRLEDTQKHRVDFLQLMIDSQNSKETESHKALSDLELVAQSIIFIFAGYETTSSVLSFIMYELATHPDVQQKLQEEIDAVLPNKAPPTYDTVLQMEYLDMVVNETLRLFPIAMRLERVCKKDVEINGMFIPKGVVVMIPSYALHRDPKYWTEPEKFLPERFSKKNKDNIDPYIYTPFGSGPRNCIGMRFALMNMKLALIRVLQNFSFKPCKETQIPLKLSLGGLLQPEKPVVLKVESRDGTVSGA
Sequence of Cytochrome P450 2C9 (P11712 whole entry): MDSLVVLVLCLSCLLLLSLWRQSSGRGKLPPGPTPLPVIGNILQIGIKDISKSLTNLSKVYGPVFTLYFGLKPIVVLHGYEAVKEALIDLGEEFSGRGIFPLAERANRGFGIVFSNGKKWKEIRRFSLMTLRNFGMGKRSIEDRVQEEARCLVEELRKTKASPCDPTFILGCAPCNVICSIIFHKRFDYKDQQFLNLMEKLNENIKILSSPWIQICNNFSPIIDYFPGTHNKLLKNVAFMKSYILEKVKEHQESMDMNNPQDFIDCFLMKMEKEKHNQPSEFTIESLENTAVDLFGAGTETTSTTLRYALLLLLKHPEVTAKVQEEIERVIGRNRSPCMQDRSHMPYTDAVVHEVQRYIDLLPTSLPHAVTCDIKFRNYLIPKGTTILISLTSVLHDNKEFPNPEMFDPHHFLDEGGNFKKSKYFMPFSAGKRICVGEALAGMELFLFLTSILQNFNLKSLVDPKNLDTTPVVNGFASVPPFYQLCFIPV

Row | Structure (SMILES) | Kd [1] [µM] | IC50 [2] [µM] | other results
1 | O=C(Nc1cnn(C2CCNC2)c1)c1ccc(=O)n(Cc2ccc(Cl)c(Cl)c2)c1 (configuration not stated) | > 100 | – | –
2 | O=c1c2cnn(C3CCS(=O)(=O)C3)c2ncn1Cc1ccc(Cl)c(Cl)c1 (configuration not stated) | – | 67.6 | –
3 | Cn1cc(NC(=O)c2cn(Cc3ccc(Cl)c(Cl)c3)c(=O)c3cccnc23)cn1 | > 100 | – | –
4 | Cn1cc(NC(=O)c2cn(Cc3ccc(Cl)c(Cl)c3)c(=O)c3ccccc23)cn1 | 1.5 | 1.3 | –
5 | O=C(Nc1ccncc1)c1cn(Cc2ccc(Cl)c(Cl)c2)c(=O)c2cnn(C3CCNCC3)c12 | 0.09 | 0.24 | logD [3]: 1.8; Papp [4]: 0.15 ×10⁻⁶ cm/s; IC50 [5]: 1.6 µM; IC50 [6]: 5.9 µM; CL [7]: 6.4 µL/min; CL [8]: 11.8 µL/min; Kd [9]: 0.05 µM; IC50 [10]: 7 µM; IC50 [11]: > 25 µM; IC50 [12]: 22 µM; Ratio [13]: 37.8; solubility kinetic [14]: 65 µM (≈ 32.3 µg/mL)
6 | O=C(Nc1ccncc1)c1cn(Cc2ccc(Cl)c(Cl)c2)c(=O)c2cnn(C3CCS(=O)(=O)C3)c12 (configuration not stated) | 0.27 | 0.33 | –
7 | Cn1cc(NC(=O)c2cn(Cc3ccccc3)c(=O)c3ccccc23)cn1 | 29.3 | 67.9 | –
8 | O=c1c2cn[nH]c2ncn1Cc1ccc(Cl)c(Cl)c1 | > 500 | – | –
9 | CN(c1cc2c(C(=O)Nc3cnn(C)c3)cn(Cc3ccc(Cl)c(Cl)c3)c(=O)c2cn1)S(C)(=O)=O | 2 | – | –
10 | Cn1cc(NC(=O)c2cn(Cc3cccc(Cl)c3)c(=O)c3ccccc23)cn1 | 7.6 | 11.4 | –
11 | Cn1cc(NC(=O)c2cn(Cc3ccc(Cl)cc3)c(=O)c3ccccc23)cn1 | 2.7 | 4.6 | –
12 | Cn1cc(NC(=O)c2cn(Cc3ccc(Cl)c(Cl)c3)c(=O)c3cnc(N4CCNCC4)cc23)cn1 | 0.58 | 0.63 | –
13 | Cn1cc(NC(=O)c2cn(Cc3ccc(Cl)c(Cl)c3)c(=O)c3cnn(C4CCS(=O)(=O)C4)c23)cn1 (configuration not stated) | 0.6 | 0.63 | –
14 | Nc1cc(C(=O)Nc2cnn(C3CCNC3)c2)cn(Cc2ccc(Cl)c(Cl)c2)c1=O (configuration not stated) | 21 | > 100 | –
15 | Cn1cc(NC(=O)c2cn(Cc3ccc(Cl)c(Cl)c3)c(=O)c3ncccc23)cn1 | > 100 | – | –
16 | CC(=O)N(C)c1ccc(Cl)cc1Cl | – | – | Kd [15]: 92 µM
